Assay results taken from patent US20010056085A1, “Methods of using vesicant drug formulations” (priority 1996, published 2001).
Read-outs that look alike come from different tables or passages of the source.

Assay: Half-life of ADR destruction by UVA light in the presence of test compounds (decrease in absorbance at 480 nm)
Type: physicochemical
[1] = UVA light, 100 μM test compound alone
[2] = UVA light, 100 μM test compound with 0.5 μM riboflavin

## Nc1ncnc2c1ncn2[C@@H]1O[C@H](CO)[C@@H](O)[C@H]1O [Adenine-9-ribose (Adenosine), Adenine-9-ribose, reference compound]
[1]
  Half-Life of ADR Destruction, 100 μM Test Compound: 50.2 min
[2]
  Half-Life of ADR Destruction, 100 μM Test Compound and 0.5 μM Riboflavin: 43.0 min

## Nc1ncnc2nc[nH]c12 [Adenine]
[1]
  Half-Life of ADR Destruction, 100 μM Test Compound: 50.2 min
[2]
  Half-Life of ADR Destruction, 100 μM Test Compound and 0.5 μM Riboflavin: 27.4 min

## O=c1nc2[nH]c3ccccc3nc-2c(=O)[nH]1 [Alloxazine]
[1]
  Half-Life of ADR Destruction, 100 μM Test Compound: 2.21 min
[2]
  Half-Life of ADR Destruction, 100 μM Test Compound and 0.5 μM Riboflavin: 1.89 min

## O=C1c2c(O)cccc2C([C@@H]2O[C@H](CO)[C@@H](O)[C@H](O)[C@H]2O)c2cc(CO)cc(O)c21 (some centres unmarked) [Aloin]
[1]
  Half-Life of ADR Destruction, 100 μM Test Compound: 75.3 min
[2]
  Half-Life of ADR Destruction, 100 μM Test Compound and 0.5 μM Riboflavin: 75.3 min

## O=C1c2cccc(S(=O)(=O)O)c2C(=O)c2cccc(S(=O)(=O)O)c21 [Anthraquinone-1,5-disulfonic acid]
[1]
  Half-Life of ADR Destruction, 100 μM Test Compound: 30.1 min
[2]
  Half-Life of ADR Destruction, 100 μM Test Compound and 0.5 μM Riboflavin: 23.2 min

## O=C(O)c1cc2c(cc1C(=O)O)C(=O)c1ccccc1C2=O [Anthraquinone-2,3-dicarboxylic acid]
[1]
  Half-Life of ADR Destruction, 100 μM Test Compound: 1.57 min

## O=C1c2ccc(S(=O)(=O)O)cc2C(=O)c2ccc(S(=O)(=O)O)cc21 [Anthraquinone-2,6-disulfonic acid]
[1]
  Half-Life of ADR Destruction, 100 μM Test Compound: 0.275 min
[2]
  Half-Life of ADR Destruction, 100 μM Test Compound and 0.5 μM Riboflavin: 0.283 min

## O=C1c2ccccc2C(=O)c2cnccc21 [Benz[γ]isoquinoline-5,10-dione]
[1]
  Half-Life of ADR Destruction, 100 μM Test Compound: <0.355 min
[2]
  Half-Life of ADR Destruction, 100 μM Test Compound and 0.5 μM Riboflavin: <0.261 min

## O=S(O)c1ccccc1 [Benzenesulfinic acid]
[2]
  Half-Life of ADR Destruction, 100 μM Test Compound and 0.5 μM Riboflavin: 15.8 min

## NS(=O)(=O)c1ccccc1 [Benzenesulfonamide]
  Half-Life of ADR Destruction, 100 μM Test Compound and 0.5 μM Riboflavin: 50.2 min

## O=S(=O)(O)c1ccccc1 [Benzenesulfonic acid]
[2]
  Half-Life of ADR Destruction, 100 μM Test Compound and 0.5 μM Riboflavin: 50.2 min

## c1ccc2occc2c1 [Benzofuran]
[2]
  Half-Life of ADR Destruction, 100 μM Test Compound and 0.5 μM Riboflavin: 75.3 min

## NC(=O)NC(=O)c1ccccc1 [Benzoylurea]
[1]
  Half-Life of ADR Destruction, 100 μM Test Compound: 43.0 min

## OCC=Cc1ccccc1 [Cinnamyl Alcohol]
[1]
  Half-Life of ADR Destruction, 100 μM Test Compound: 43.0 min

## c1ccc2cocc2c1 [Compound 2-Benzofuran, 2-Benzofuran]
[1]
  Half-Life of ADR Destruction, 100 μM Test Compound: 23.2 min

## C1=CCNC1 [Compound 3-Pyrroline, 3-Pyrroline]
[2]
  Half-Life of ADR Destruction, 100 μM Test Compound and 0.5 μM Riboflavin: 43.0 min

## O=c1ccoc2ccccc12 [Compound 4-Chromone, 4-Chromone]
[1]
  Half-Life of ADR Destruction, 100 μM Test Compound: 43.0 min

## O=C1c2ccccc2-c2ccccc21 [Compound 9-Fluorenone, 9-Fluorenone]
[2]
  Half-Life of ADR Destruction, 100 μM Test Compound and 0.5 μM Riboflavin: 43.0 min

## COc1cc(/C=C/CO)ccc1O[C@@H]1O[C@H](CO)[C@@H](O)[C@H](O)[C@H]1O [Coniferin]
[1]
  Half-Life of ADR Destruction, 100 μM Test Compound: 50.2 min
[2]
  Half-Life of ADR Destruction, 100 μM Test Compound and 0.5 μM Riboflavin: 15.1 min

## O=C(O)c1cc2ccccc2oc1=O [Coumarin-3-carboxylic acid]
[1]
  Half-Life of ADR Destruction, 100 μM Test Compound: 23.2 min
[2]
  Half-Life of ADR Destruction, 100 μM Test Compound and 0.5 μM Riboflavin: 21.5 min

## N[C@@H](CSSC[C@H](N)C(=O)O)C(=O)O [Cystine]
[2]
  Half-Life of ADR Destruction, 100 μM Test Compound and 0.5 μM Riboflavin: 150.5 min

## Nc1cc[nH]c(=O)n1 [Cytosine]
[1]
  Half-Life of ADR Destruction, 100 μM Test Compound: 50.2 min
[2]
  Half-Life of ADR Destruction, 100 μM Test Compound and 0.5 μM Riboflavin: 43.0 min

## C[S+](C)[O-] [Dimethylsulfoxide]
UVA light, dimethylsulfoxide 4% = 0.56 M alone
  Half-Life of ADR Destruction, Test Compound: 33.5 min
UVA light, dimethylsulfoxide 4% = 0.56 M with 0.5 μM riboflavin
  Half-Life of ADR Destruction, Test Compound and 0.5 μM Riboflavin: 27.4 min
UVA light, dimethylsulfoxide 40% - 5.6 M with 0.5 μM riboflavin
  Half-Life of ADR Destruction, Test Compound and 0.5 μM Riboflavin: 10.4 min

## CCc1cccc2c3c([nH]c12)C(CC)(CC(=O)O)OCC3 (centres unmarked) [Etodolac, reference compound]
[1]
  Half-Life of ADR Destruction, 100 μM Test Compound: 33.5 min
[2]
  Half-Life of ADR Destruction, 100 μM Test Compound and 0.5 μM Riboflavin: 6.41 min

## O=C(O)CCC(=O)c1ccc(-c2ccccc2)cc1 [Fenbufen, reference compound]
[1]
  Half-Life of ADR Destruction, 100 μM Test Compound: 12.5 min
[2]
  Half-Life of ADR Destruction, 100 μM Test Compound and 0.5 μM Riboflavin: 12.0 min

## CC(C(=O)O)c1ccc(-c2ccccc2)c(F)c1 (stereo not drawn) [Flurbiprofen, 4-Phenyl-3-Fluoro-α-Methyl Phenylacetic Acid, reference compound]
[1]
  Half-Life of ADR Destruction, 100 μM Test Compound: 75.3 min
[2]
  Half-Life of ADR Destruction, 100 μM Test Compound and 0.5 μM Riboflavin: 50.2 min

## O=C(C(=O)c1ccco1)c1ccco1 [Furil]
[1]
  Half-Life of ADR Destruction, 100 μM Test Compound: 43.0 min
[2]
  Half-Life of ADR Destruction, 100 μM Test Compound and 0.5 μM Riboflavin: 33.5 min

## C=C1C[C@]23C[C@@]1(O)CC[C@H]2[C@@]12C=C[C@H](O)[C@@](C)(C(=O)O1)[C@H]2[C@@H]3C(=O)O [Gibberellic acid]
[1]
  Half-Life of ADR Destruction, 100 μM Test Compound: 43.0 min

## Nc1nc2c(ncn2[C@@H]2O[C@H](CO)[C@@H](O)[C@H]2O)c(=O)[nH]1 [Guanosine]
[1]
  Half-Life of ADR Destruction, 100 μM Test Compound: 75.3 min
[2]
  Half-Life of ADR Destruction, 100 μM Test Compound and 0.5 μM Riboflavin: 14.3 min

## O=c1[nH]cnc2nc[nH]c12 [Hypoxanthine]
[2]
  Half-Life of ADR Destruction, 100 μM Test Compound and 0.5 μM Riboflavin: 43.0 min

## c1ccc2c(c1)CCc1ccccc1N2 [Iminodibenzyl]
[2]
  Half-Life of ADR Destruction, 100 μM Test Compound and 0.5 μM Riboflavin: 23.2 min

## O=C(O)c1cc2ccccc2[nH]1 [Indole-2-carboxylic acid]
[2]
  Half-Life of ADR Destruction, 100 μM Test Compound and 0.5 μM Riboflavin: 9.12 min

## NC(=O)Cc1c[nH]c2ccccc12 [Indole-3-acetamide]
[2]
  Half-Life of ADR Destruction, 100 μM Test Compound and 0.5 μM Riboflavin: 11.2 min

## O=C(O)Cc1c[nH]c2ccccc12 [Indole-3-acetic acid]
[1]
  Half-Life of ADR Destruction, 100 μM Test Compound: 27.4 ± 14.1 min
[2]
  Half-Life of ADR Destruction, 100 μM Test Compound and 0.5 μM Riboflavin: 3.75 ± 0.22 min

## O=Cc1c[nH]c2ccccc12 [Indole-3-carboxaldehyde]
[2]
  Half-Life of ADR Destruction, 100 μM Test Compound and 0.5 μM Riboflavin: 30.1 min

## O=C(O)CCc1c[nH]c2ccccc12 [Indole-3-propionic acid]
[2]
  Half-Life of ADR Destruction, 100 μM Test Compound and 0.5 μM Riboflavin: 9.5 ± 3.5 min

## O=C(O)C(=O)Cc1c[nH]c2ccccc12 [Indole-3-pyruvic acid]
[2]
  Half-Life of ADR Destruction, 100 μM Test Compound and 0.5 μM Riboflavin: 6.74 min

## O=C(O)c1ccc2[nH]ccc2c1 [Indole-5-carboxylic acid]
[2]
  Half-Life of ADR Destruction, 100 μM Test Compound and 0.5 μM Riboflavin: 12.0 min

## c1ccc2c(c1)CCN2 [Indoline]
  Half-Life of ADR Destruction, 100 μM Test Compound and 0.5 μM Riboflavin: 75.3 min

## COc1ccc2c(c1)c(CC(=O)O)c(C)n2C(=O)c1ccc(Cl)cc1 [Indomethacin, 1-(4-Chlorobenzoyl)-5-Methoxy-2-Methyl-indole-3-acetic acid, reference compound]
[1]
  Half-Life of ADR Destruction, 100 μM Test Compound: 100.3 min

## CC(C(=O)O)c1ccc(N2Cc3ccccc3C2=O)cc1 (stereo not drawn) [Indoprofen, 4-(1-Isoindolinone)-α-Methyl Phenylacetic Acid, reference compound]
[1]
  Half-Life of ADR Destruction, 100 μM Test Compound: 75.3 min
[2]
  Half-Life of ADR Destruction, 100 μM Test Compound and 0.5 μM Riboflavin: 25.1 min

## Cc1cc(NC(=O)C2=C(O)c3ccccc3S(=O)(=O)N2C)no1 [Isoxicam, reference compound]
[1]
  Half-Life of ADR Destruction, 100 μM Test Compound: 75.3 min

## O=C(c1ccccc1)c1ccc2n1CCC2C(=O)O (centres unmarked) [Ketorlac, reference compound]
  Half-Life of ADR Destruction, 100 μM Test Compound: 4.07 min
  Half-Life of ADR Destruction, 100 μM Test Compound and 0.5 μM Riboflavin: 3.81 min

## Nc1ccccc1C(=O)CC(N)C(=O)O (centres unmarked) [Kynurenine]
[2]
  Half-Life of ADR Destruction, 100 μM Test Compound and 0.5 μM Riboflavin: 75.3 min

## O=c1[nH]c(=O)c2nccnc2[nH]1 [Lumazine]
[1]
  Half-Life of ADR Destruction, 100 μM Test Compound: 5.79 min
[2]
  Half-Life of ADR Destruction, 100 μM Test Compound and 0.5 μM Riboflavin: 3.31 min

## Cc1cc2nc3[nH]c(=O)[nH]c(=O)c3nc2cc1C [Lumichrome]
  Half-Life of ADR Destruction, 100 μM Test Compound: 6.02 min
  Half-Life of ADR Destruction, 100 μM Test Compound and 0.5 μM Riboflavin: 3.86 min

## COc1ccc(C(=O)CCC(=O)O)c2ccccc12 [Menbutone, 4-Methoxy-γ-oxo-1-naphthalenebutyric acid, reference compound]
[1]
  Half-Life of ADR Destruction, 100 μM Test Compound: 2.21 min
[2]
  Half-Life of ADR Destruction, 100 μM Test Compound and 0.5 μM Riboflavin: 1.37 min

## COC(=O)c1ccc(N)cc1 [Methyl-4-aminobenzoate]
[2]
  Half-Life of ADR Destruction, 100 μM Test Compound and 0.5 μM Riboflavin: 10.8 min

## Cn1ccc2ccccc21 [N-ω-methyl-indole]
[2]
  Half-Life of ADR Destruction, 100 μM Test Compound and 0.5 μM Riboflavin: 20.1 min

## COc1ccc2cc(CCC(C)=O)ccc2c1 [Nabumetone, 4-(6-Methoxy-2-naphthyl)-butan-2-one, reference compound]
[1]
  Half-Life of ADR Destruction, 100 μM Test Compound: 27.4 min
[2]
  Half-Life of ADR Destruction, 100 μM Test Compound and 0.5 μM Riboflavin: 8.6 min
UVA light, 100 μM test compound with 0.5 μM riboflavin, listed as 4-(6-Methoxy-2-naphthyl)-butan-2-one (Nabumetone)
  Half-Life of ADR Destruction, 100 μM Test Compound and 0.5 μM Riboflavin: 8.60 min

## O=C(O)c1cccc2ccccc12 [Naphthalene-1-carboxylic acid]
[1]
  Half-Life of ADR Destruction, 100 μM Test Compound: 50.2 min
[2]
  Half-Life of ADR Destruction, 100 μM Test Compound and 0.5 μM Riboflavin: 43.0 min

## O=C(O)Cc1ccc2ccccc2c1 [Naphthalene-2-acetic acid]
[1]
  Half-Life of ADR Destruction, 100 μM Test Compound: 75.3 min
[2]
  Half-Life of ADR Destruction, 100 μM Test Compound and 0.5 μM Riboflavin: 30.1 min

## O=C(O)c1ccc2ccccc2c1 [Naphthalene-2-carboxylic acid]
[1]
  Half-Life of ADR Destruction, 100 μM Test Compound: 50.2 min
[2]
  Half-Life of ADR Destruction, 100 μM Test Compound and 0.5 μM Riboflavin: 43.0 min

## OCCc1ccccc1 [Phenylethyl Alcohol]
[1]
  Half-Life of ADR Destruction, 100 μM Test Compound: 43.0 min

## NC(C(=O)O)c1ccccc1 (centres unmarked) [Phenylglycine]
[2]
  Half-Life of ADR Destruction, 100 μM Test Compound and 0.5 μM Riboflavin: 67.8 ± 10.7 min

## CN1C(C(=O)Nc2ccccn2)=C(O)c2ccccc2S1(=O)=O [Piroxicam, reference compound]
[1]
  Half-Life of ADR Destruction, 100 μM Test Compound: 100.3 min
[2]
  Half-Life of ADR Destruction, 100 μM Test Compound and 0.5 μM Riboflavin: 10.4 min

## CCC(=O)c1ccccc1 [Propriophenone]
  Half-Life of ADR Destruction, 100 μM Test Compound: 43.0 min
